Test system: middle cerebral artery (MCA) occlusion
Conditions: rat, 2 h MCA occlusion, 24 h reperfusion, 0.03 mg/kg iv bolus at 30 minutes
Method: Six male Sprague Dawley rats (300 g) were anesthetized with haloethane and subjected to middle cerebral artery (MCA) occlusion using a nylon filament for 2 h. Subsequently, the filament was removed and reperfusion of the infarcted tissue occurred for 24 hours before the rat was sacrificed.
Staining of coronal sections (2.0 mm×7-8) with triphenyltetrazolium chloride ([…]) taken throughout the brain were evaluated under blinded conditions using image analysis to determine infarct size.
The infarct was also expressed as a percentage of the contralateral (non-infarcted) hemisphere to provide an indication of how much of the ipsilateral (infarcted) hemisphere was actually damaged by the procedure. Because edema is present in the infarcted hemisphere, it is often impossible to directly ascertain the percentage of the ipsilateral hemisphere that has been damaged.
Rats were given iv bolus injections (1.0 mL/kg) of either vehicle (10% PEG 200/saline; n=3) or N-(2-pyrazine)carbonyl-L-phenylalanine-L-leucine boronic acid (0.03 mg/kg; n=3) at 30 minutes, 2 hours, and 6 hours after the start of the occlusion.

## CC(C)CC(NC(=O)C(Cc1ccccc1)NC(=O)c1cnccn1)B(O)O [N-(2-pyrazine)carbonyl-L-phenylalanine-L-leucine boronic acid]
2 hours and 6 hours after start of occlusion, vs vehicle
  Infarct volume decreased on the ipsilateral hemisphere: 62%
2 hours and 6 hours, vehicle 19%
  Total damage of the hemisphere (infarct as percentage of contralateral hemisphere): 2%

Reference: patent US20030069189A1, “Treatment of infarcts” (Millennium Pharmaceuticals, Inc., priority 1997, published 2003)
